This note sets out measurements from patent publication US10538555B2, “Macrocyclic inhibitors of the PD-1/PD-L1 and CD80(B7-1)/PD-L1 protein/protein interactions” (BRISTOL-MYERS SQUIBB COMPANY, priority 2014, dated 2020).

Where two headings read alike, the source gives them in different places. Where a SMILES comes first, the peptide text is derived from it. Bridges are numbered along the chain shown (N, C = ends). [ ]: non-standard residue; d: D form. ξ: configuration not given here. Bta = N[C@@H](Cc1csc2ccccc12)C(=O)O; Hyp = O=C(O)[C@@H]1C[C@@H](O)CN1; NMeF = CN[C@@H](Cc1ccccc1)C(=O)O; NMeNle = CCCC[C@H](NC)C(=O)O; NMeM = CN[C@@H](CCSC)C(=O)O; NMeA = CN[C@@H](C)C(=O)O; Orn = NCCC[C@H](N)C(=O)O; Dab = NCC[C@H](N)C(=O)O; ξC = NC(CS)C(=O)O

This assay addresses T1, Human PD-L1/PD-1 (Homo sapiens, UniProt Q9NZQ7).
T1 construct: TVMV protease cleavage site (C); made in house; host or cells: HEK293T cells
Nature of the assay: HTRF Human PD-L1/PD-1 binding assay (PD-1-Ig/PD-L1-His). Conditions: PD-L1-His 10 nM, PD-1-Ig 20 nM. The method, boiled down: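 HTRF competition using HEK293T-expressed human PD-1(25-167)-Ig at 20 nM and PD-L1(18-239)-His at 10 nM, compound incubated first with PD-L1 for 15 min, then with PD-1 for 15 min. Signal read as 665/620 nm ratio 30 min after adding Eu anti-Ig and APC anti-His antibodies.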

Where [1] appears, read: class symbol, read-out: HTRF Human PD-L1/PD-1 Binding Assay IC50 Range.

T1 sequence (Q9NZQ7 with tags, fused parts or gaps): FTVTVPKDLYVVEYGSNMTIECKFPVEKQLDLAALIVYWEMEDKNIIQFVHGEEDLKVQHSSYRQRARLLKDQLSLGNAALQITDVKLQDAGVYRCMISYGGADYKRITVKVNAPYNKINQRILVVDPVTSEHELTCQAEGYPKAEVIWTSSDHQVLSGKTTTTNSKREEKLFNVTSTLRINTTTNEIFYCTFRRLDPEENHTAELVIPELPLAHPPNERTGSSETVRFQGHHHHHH

For `CCCC[C@H]1C(=O)N(C)[C@@H](CCCC)C(=O)N[C@@H](CCCN)C(=O)NC(C(=O)NCC(N)=O)CSCC(=O)N[C@@H](Cc2ccc(O)cc2)C(=O)N(C)[C@@H](C)C(=O)N[C@@H](CC(N)=O)C(=O)N2CCC[C@H]2C(=O)N[C@@H](CC(N)=O)C(=O)N[C@@H](CC(C)C)C(=O)N2C[C@H](O)C[C@H]2C(=O)N[C@@H](Cc2c[nH]c3ccccc23)C(=O)N[C@@H](CO)C(=O)N[C@@H](Cc2csc3ccccc23)C(=O)N1C` (stereo partly drawn) [Example 9158] ({CH2CO}-Y[NMeA]NPNL[Hyp]WS[Bta][NMeNle][NMeNle][Orn][ξC]G-NH2; thioether N-14), the IC50 under setting [1] was in the range of 1 to 9.9 nM.
On to `CCCC[C@H]1C(=O)N(C)[C@@H](CCCC)C(=O)N[C@@H](CC(C)C)C(=O)NC(C(=O)NCC(N)=O)CSCC(=O)N[C@@H](Cc2ccc(O)cc2)C(=O)N(C)[C@@H](C)C(=O)N[C@@H](CC(N)=O)C(=O)N2CCC[C@H]2C(=O)N[C@@H](CC(N)=O)C(=O)N[C@@H](CC(C)C)C(=O)N2CCC[C@H]2C(=O)N[C@@H](Cc2c[nH]c3ccccc23)C(=O)N[C@@H](CO)C(=O)N[C@@H](Cc2c[nH]c3ccccc23)C(=O)N1C` (stereo partly drawn) [Example 9159] ({CH2CO}-Y[NMeA]NPNLPWSW[NMeNle][NMeNle]L[ξC]G-NH2; thioether N-14), for which the IC50 under setting [1] was in the range of 1 to 9.9 nM.
The same measure, in the same setting: with `CCCC[C@H]1C(=O)N(C)[C@@H](CCCC)C(=O)N[C@@H](CC(C)C)C(=O)NC(C(=O)NCC(N)=O)CSCC(=O)N[C@@H](Cc2ccc(O)cc2)C(=O)N(C)[C@@H](C)C(=O)N[C@@H](CC(N)=O)C(=O)N2CCC[C@H]2C(=O)N[C@@H](CC(N)=O)C(=O)N[C@@H](CC(C)C)C(=O)N2CCC[C@H]2C(=O)N[C@@H](Cc2csc3ccccc23)C(=O)N[C@@H](CO)C(=O)N[C@@H](Cc2c[nH]c3ccccc23)C(=O)N1C` (stereo partly drawn) [Example 9160] ({CH2CO}-Y[NMeA]NPNLP[Bta]SW[NMeNle][NMeNle]L[ξC]G-NH2; thioether N-14) the figure was 10 to 99.9 nM.
On the same count and under the same terms, the value for `CCCC[C@H]1C(=O)N(C)[C@@H](CCCC)C(=O)N[C@@H](CC(C)C)C(=O)NC(C(=O)NCC(N)=O)CSCC(=O)N[C@@H](Cc2ccc(O)cc2)C(=O)N(C)[C@@H](C)C(=O)N[C@@H](CC(N)=O)C(=O)N2CCC[C@H]2C(=O)N[C@@H](CC(N)=O)C(=O)N[C@@H](CC(C)C)C(=O)N2CCC[C@H]2C(=O)N[C@@H](Cc2c[nH]c3ccccc23)C(=O)N[C@@H](CO)C(=O)N[C@@H](Cc2c[nH]c3ccccc23)C(=O)N1C` (stereo partly drawn) [Example 9161] ({CH2CO}-Y[NMeA]NPNLPWSW[NMeNle][NMeNle]L[ξC]G-NH2; thioether N-14) was 1 to 9.9 nM; that for `CCCC[C@H]1C(=O)N(C)[C@@H](CCCC)C(=O)N[C@@H](CCN)C(=O)NC(C(=O)NCC(N)=O)CSCC(=O)N[C@@H](Cc2ccc(O)cc2)C(=O)N(C)[C@@H](C)C(=O)N[C@@H](CC(N)=O)C(=O)N2CCC[C@H]2C(=O)N[C@@H](CC(N)=O)C(=O)N[C@@H](CC(C)C)C(=O)N2CCC[C@H]2C(=O)N[C@@H](Cc2c[nH]c3ccccc23)C(=O)N[C@@H](CO)C(=O)N[C@@H](Cc2c[nH]c3ccccc23)C(=O)N1C` (stereo partly drawn) [Example 9162] ({CH2CO}-Y[NMeA]NPNLPWSW[NMeNle][NMeNle][Dab][ξC]G-NH2; thioether N-14) was 1 to 9.9 nM.
The same measure, in the same setting: with `CCCC[C@H]1C(=O)N(C)[C@@H](CCCC)C(=O)N[C@@H](CCN)C(=O)NC(C(=O)NCC(N)=O)CSCC(=O)N[C@@H](Cc2ccc(O)cc2)C(=O)N(C)[C@@H](C)C(=O)N[C@@H](CC(N)=O)C(=O)N2CCC[C@H]2C(=O)N[C@@H](CC(N)=O)C(=O)N[C@@H](CC(C)C)C(=O)N2CCC[C@H]2C(=O)N[C@@H](Cc2csc3ccccc23)C(=O)N[C@@H](CO)C(=O)N[C@@H](Cc2c[nH]c3ccccc23)C(=O)N1C` (stereo partly drawn) [Example 9163] ({CH2CO}-Y[NMeA]NPNLP[Bta]SW[NMeNle][NMeNle][Dab][ξC]G-NH2; thioether N-14) the figure was 1 to 9.9 nM; with `CCCC[C@H]1C(=O)N(C)[C@@H](CCCC)C(=O)N[C@@H](CCN)C(=O)NC(C(=O)NCC(N)=O)CSCC(=O)N[C@@H](Cc2ccc(O)cc2)C(=O)N(C)[C@@H](C)C(=O)N[C@@H](CC(N)=O)C(=O)N2CCC[C@H]2C(=O)N[C@@H](CC(N)=O)C(=O)N[C@@H](CC(C)C)C(=O)N2C[C@H](O)C[C@H]2C(=O)N[C@@H](Cc2c[nH]c3ccccc23)C(=O)N[C@@H](CO)C(=O)N[C@@H](Cc2c[nH]c3ccccc23)C(=O)N1C` (stereo partly drawn) [Example 9164] ({CH2CO}-Y[NMeA]NPNL[Hyp]WSW[NMeNle][NMeNle][Dab][ξC]G-NH2; thioether N-14), 1 to 9.9 nM; with `CCCC[C@H]1C(=O)N(C)[C@@H](CCCC)C(=O)N[C@@H](CCN)C(=O)NC(C(=O)NCC(N)=O)CSCC(=O)N[C@@H](Cc2ccc(O)cc2)C(=O)N(C)[C@@H](C)C(=O)N[C@@H](CC(N)=O)C(=O)N2CCC[C@H]2C(=O)N[C@@H](CC(N)=O)C(=O)N[C@@H](CC(C)C)C(=O)N2C[C@H](O)C[C@H]2C(=O)N[C@@H](Cc2c[nH]c3ccccc23)C(=O)N[C@@H](CO)C(=O)N[C@@H](Cc2csc3ccccc23)C(=O)N1C` (stereo partly drawn) [Example 9165] ({CH2CO}-Y[NMeA]NPNL[Hyp]WS[Bta][NMeNle][NMeNle][Dab][ξC]G-NH2; thioether N-14), 1 to 9.9 nM.
Turning to `CSCC[C@H]1C(=O)N2C[C@H](O)C[C@H]2C(=O)N[C@@H](CC(=O)O)C(=O)N[C@@H](C(C)C)C(=O)N(C)[C@@H](Cc2ccccc2)C(=O)N[C@@H](Cc2ccc(O)cc2)C(=O)N2C[C@H](O)C[C@H]2C(=O)N[C@@H](Cc2c[nH]c3ccccc23)C(=O)N[C@@H](Cc2ccc(O)cc2)C(=O)N[C@@H](CC(C)C)C(=O)N[C@H](C(=O)NCC(N)=O)CSCC(=O)N[C@@H](Cc2ccccc2)C(=O)N(C)[C@@H](Cc2ccccc2)C(=O)N1C` [Example 9166] ({CH2CO}-F[NMeF][NMeM][Hyp]DV[NMeF]Y[Hyp]WYLCG-NH2; thioether N-13), the IC50 under setting [1] lay in the range of 1000 to 10000 nM.
Consider `CSCC[C@H]1C(=O)N2C[C@H](O)C[C@H]2C(=O)N[C@@H](CC(N)=O)C(=O)N[C@@H](C(C)C)C(=O)N(C)[C@@H](Cc2ccccc2)C(=O)N[C@@H](Cc2ccc(O)cc2)C(=O)N2C[C@H](O)C[C@H]2C(=O)N[C@@H](Cc2c[nH]c3ccccc23)C(=O)N[C@@H](Cc2ccc(O)cc2)C(=O)N[C@@H](CC(C)C)C(=O)N[C@H](C(=O)NCC(N)=O)CSCC(=O)N[C@@H](Cc2ccccc2)C(=O)N(C)[C@@H](Cc2ccccc2)C(=O)N1C` [Example 9167] ({CH2CO}-F[NMeF][NMeM][Hyp]NV[NMeF]Y[Hyp]WYLCG-NH2; thioether N-13), for which the IC50 (read-out: HTRF Human PD-L1/PD-1 Binding Assay IC50) stood at 1000 nM.
In the case of `CCCC[C@H]1C(=O)N(C)[C@@H](CCCC)C(=O)N[C@@H](CCC(=O)O)C(=O)NC(C(=O)NCC(N)=O)CSCC(=O)N[C@@H](Cc2ccc(O)cc2)C(=O)N(C)[C@@H](C)C(=O)N[C@@H](CC(N)=O)C(=O)N2CCC[C@H]2C(=O)N[C@@H](CC(N)=O)C(=O)N[C@@H](CC(C)C)C(=O)N2CCC[C@H]2C(=O)N[C@@H](Cc2c[nH]c3ccccc23)C(=O)N[C@@H](CO)C(=O)N[C@@H](Cc2c[nH]c3ccccc23)C(=O)N1C` (stereo partly drawn) [Example 9168] ({CH2CO}-Y[NMeA]NPNLPWSW[NMeNle][NMeNle]E[ξC]G-NH2; thioether N-14), under setting [1], the IC50 is 1 to 9.9 nM.
On the same count and under the same terms, with `CCCC[C@H]1C(=O)N(C)[C@@H](CCCC)C(=O)N[C@@H](CCC(=O)O)C(=O)NC(C(=O)NCC(N)=O)CSCC(=O)N[C@@H](Cc2ccc(O)cc2)C(=O)N(C)[C@@H](C)C(=O)N[C@@H](CC(N)=O)C(=O)N2CCC[C@H]2C(=O)N[C@@H](CC(N)=O)C(=O)N[C@@H](CC(C)C)C(=O)N2C[C@H](O)C[C@H]2C(=O)N[C@@H](Cc2c[nH]c3ccccc23)C(=O)N[C@@H](CO)C(=O)N[C@@H](Cc2c[nH]c3ccccc23)C(=O)N1C` (stereo partly drawn) [Example 9169] ({CH2CO}-Y[NMeA]NPNL[Hyp]WSW[NMeNle][NMeNle]E[ξC]G-NH2; thioether N-14) the figure was 1 to 9.9 nM; with `CCCC[C@H]1C(=O)N(C)[C@@H](CCCC)C(=O)N[C@@H](CCC(=O)O)C(=O)NC(C(=O)NCC(N)=O)CSCC(=O)N[C@@H](Cc2ccc(O)cc2)C(=O)N(C)[C@@H](C)C(=O)N[C@@H](CC(N)=O)C(=O)N2CCC[C@H]2C(=O)N[C@@H](Cc2c[nH]cn2)C(=O)N[C@@H](CC(N)=O)C(=O)N2CCC[C@H]2C(=O)N[C@@H](Cc2c[nH]c3ccccc23)C(=O)N[C@@H](CO)C(=O)N[C@@H](Cc2c[nH]c3ccccc23)C(=O)N1C` (stereo partly drawn) [Example 9170] ({CH2CO}-Y[NMeA]NPHNPWSW[NMeNle][NMeNle]E[ξC]G-NH2; thioether N-14), 10 to 99.9 nM.
As for `CCCC[C@H]1C(=O)N(C)[C@@H](CCCC)C(=O)N[C@@H](CCC(=O)O)C(=O)NC(C(=O)NCC(N)=O)CSCC(=O)N[C@@H](Cc2ccc(O)cc2)C(=O)N(C)[C@@H](C)C(=O)N[C@@H](CC(N)=O)C(=O)N2CCC[C@H]2C(=O)N[C@@H](Cc2c[nH]cn2)C(=O)N[C@@H](CC(N)=O)C(=O)N2C[C@H](O)C[C@H]2C(=O)N[C@@H](Cc2c[nH]c3ccccc23)C(=O)N[C@@H](CO)C(=O)N[C@@H](Cc2c[nH]c3ccccc23)C(=O)N1C` (stereo partly drawn) [Example 9171] ({CH2CO}-Y[NMeA]NPHN[Hyp]WSW[NMeNle][NMeNle]E[ξC]G-NH2; thioether N-14), under setting [1], the IC50 lay within 1 to 9.9 nM.
Take `CCCC[C@H]1C(=O)N(C)[C@@H](CCCC)C(=O)N[C@@H](CCC(=O)O)C(=O)NC(C(=O)NCC(N)=O)CSCC(=O)N[C@@H](Cc2ccc(O)cc2)C(=O)N(C)[C@@H](C)C(=O)N[C@@H](CC(N)=O)C(=O)N2CCC[C@H]2C(=O)N[C@@H](CC(N)=O)C(=O)N[C@@H](CC(C)C)C(=O)N2CCC[C@H]2C(=O)N[C@@H](Cc2c[nH]c3ccccc23)C(=O)N[C@@H](CC(=O)O)C(=O)N[C@@H](Cc2c[nH]c3ccccc23)C(=O)N1C` (stereo partly drawn) [Example 9172] ({CH2CO}-Y[NMeA]NPNLPWDW[NMeNle][NMeNle]E[ξC]G-NH2; thioether N-14): the IC50 under setting [1] lay in the range of 100 to 990 nM.
